According to patent US11466020B2, “Compounds and compositions for inhibition and elimination of Zika infection and uses for same” (Cornell University, priority 2017, dated 2022):
“Also recorded” adds a separate entry of the source. Structures can show the parent of a compound that is named as a salt.

What was measured:
ZIKV MR766 virus strain [1] = assay: Prophylactic treatment of ZIKV infected SCID-Beige mice; format: in vivo; conditions: AQ-treated ZIKV infected mice
ZIKV MR766 virus strain [2] = assay: as above; format: in vivo
Procedure: (A) Scheme of prophylactic treatment of HH in vivo. HH was administrated to SCID-Beige mice 12 h before infection with MR766 virus strain. HH was injected at a dose of 100 mg/kg/day subcutaneously and euthanized at day 7. (B) qRT-PCR analysis of total ZIKV vRNA in liver, spleen, kidney and brain of ZIKV infected mice. n=12 for liver, spleen and kidney and 20 for brain. (C) qRT-PCR analysis of total ZIKV vRNA in brains of ZIKV-infected mice treated with vehicle (n=14) or HH (n=8). […] (D-F) Immunohistochemical analysis of adult cortex. […] Scale bar=100 μm in (D) and 10 μm in (E, F). (G-I) Immunohistochemical analysis of adult hippocampus. […] Scale bar=100 μm in (G) and 10 μm in (H, I). (J-L) Immunohistochemical analysis of adult striatum. […] Scale bar=100 μm in (J) and 10 μm in (K, L). (M, N) Immunohistochemical analysis of cellular apoptosis in adult cortex. […] Scale bar=100 μm in (M) and 10 μm in (N). (O, P) Expression kinetics of total vRNA (O) and (−) strand vRNA (P) of ZIKV (MR766 strain) in mouse brain. N is larger or equal to 4 mice at each time points. The mice were inoculated with (1×10^6 PFU) through intraperitoneal injection. The mice were euthanized at 12 h, 24 h, 3 days, 4 days and 5 days post-infection. (Q) Scheme of therapeutic treatment of HH on ZIKV (MR766 strain) infected mice. The SCID-beige mice were infected with ZIKV (MR766 strain, 1×10^6 PFU). The mice at 5 days post-infection were treated with 100 mg/kg HH or vehicle daily for 5 days. The mice were then euthanized and RNA from brains was analyzed using qRT-PCR. (R, S) qRT-PCR analysis of total vRNA (R) and (−) strand RNA (S) in the brains of mice treated with vehicle (n=8) or HH (n=8) at day 5 post-infection. (T, U) Expression kinetics of total vRNA (N) and (−) strand vRNA (O) of ZIKV (FSS13025 strain) in mouse brain. N is larger or equal to 4 mice at each time points. The mice were inoculated with (3×10^6 PFU) through intraperitoneal injection. The mice were euthanized at 12 h, 24 h, 3 days, 5 days and 7 days post-infection. (V) Scheme of therapeutic treatment of HH on ZIKV (FSS13025 strain) infected mice. The SCID-beige mice were infected with ZIKV (FSS13025 strain, 3×10^6 PFU). The mice at 7 days post-infection were treated with 100 mg/kg HH or vehicle daily for 7 days. The mice were euthanized after 7 days treatment and RNA from brains was analyzed using qRT-PCR. (W, X) qRT-PCR analysis of total vRNA (W) and (−) strand RNA (X) in the brains of mice treated with vehicle (n=8) or HH (n=11) at day 7 post-infection. p values were calculated by one-way repeated measures ANOVA or two-way repeated measures ANOVA with a Bonferroni test for multiple comparisons. *p<0.05, **p<0.01 and ***p<0.001.
PBS, the solvent used to dissolve both compounds, was used as vehicle control.
The mice were euthanized at day 7 post-infection. Total ZIKV vRNA was then quantified in multiple organs of ZIKV-infected mice treated with vehicle, including liver, spleen, kidney and brain (FIG. 4B).
The immunohistochemical analysis of mouse tissues was performed on cryosections. In brief, the tissues were fixed overnight with 4% PFA at 4° C., embedded in OCT, and then sectioned at 30 μm for immunostaining. The primary and secondary antibodies were used as described above.
Adult mouse infection and in vivo drug testing. 6-8 week old female SCID-Beige mice were infected with ZIKV (2.5×10^5 PFU in 0.5 ml culture fluid) through intraperitoneal injection.

[3] = HH 100 mg/kg/day subcutaneously, hydrobromide

| Compound | ZIKV infection of adult cortex (immunohistochemistry) (ZIKV MR766 virus strain [1]) | ZIKV infection of adult hippocampus (immunohistochemistry) (ZIKV MR766 virus strain [1]) | ZIKV infection of adult striatum (immunohistochemistry) (ZIKV MR766 virus strain [1]) | ZIKV vRNA in brain (ZIKV MR766 virus strain [2]; HH 100 mg/kg/day subcutaneously from 12 h before infection, day 7 post-infection) | ZIKV infection of adult cortex (immunohistochemistry) (ZIKV MR766 virus strain [2]; [3]) | ZIKV infection of adult hippocampus (immunohistochemistry) (ZIKV MR766 virus strain [2]; [3]) | ZIKV infection of adult striatum (immunohistochemistry) (ZIKV MR766 virus strain [2]; [3]) | cellular apoptosis (CAS3) associated with ZIKV infection in the cortex (ZIKV MR766 virus strain [2]; [3]) |
| --- | --- | --- | --- | --- | --- | --- | --- | --- |
| CCN(CC)Cc1cc(Nc2ccnc3cc(Cl)ccc23)ccc1O [AQ, amodiaquine dihydrochloride dihydrate] | suppresses infection in adult cortex | suppresses infection in adult hippocampus | suppresses infection in adult striatum |  |  |  |  |  |
| CN1CCC2=C[C@H](O)[C@H]3OC(=O)c4cc5c(cc4[C@H]3[C@@H]21)OCO5 [HH, hippeastrine hydrobromide] |  |  |  | significantly lower level | fully inhibits infection of adult cortex; also recorded: completely inhibited | completely inhibits infection of the adult hippocampus; also recorded: completely inhibited | fully inhibits infection of the adult striatum; also recorded: completely inhibited | rescues cellular apoptosis; also recorded: completely inhibited |
